Assay results from patent US8513270B2, “Substituted heterocycles as Janus kinase inhibitors” (Incyte Corporation, priority 2006, dated 2013).
Like-named read-outs stand apart in the source and are kept apart here.

Tests used:
[1] = target: T1, ABL1 kinase (wild-type) (Homo sapiens, UniProt P00519); assay: ABL1 HTRF assay (wild-type); format: biochemical; conditions: 35 μM ATP; read-out: EXAMPLE G WT Abl IC50
T1 construct: The catalytic domains of ABL1 kinases (residues 27 to the C-termini) were N-terminal His tagged; His tag (N); purchased Upstate Cell Signaling Solutions; host or cells: insect cells (baculovirus)
Procedure: (§1) Compounds herein described were tested for inhibitory activity of ABL1 kinase (wild-type and T315I mutant) as described below. The catalytic domains of ABL1 kinases (residues 27 to the C-termini) were N-terminal His tagged and expressed by baculovirus in insect cells and purified. These were purchased in purified form from Upstate Cell Signaling Solutions. ABL1 and T315I ABL1 catalyze the phosphorylation of p28. The phosphorylated p28 is detected by Homogeneous Time Resolved Fluorescence (HTRF). IC50s of compounds were measured for each kinase in the reactions that contain: 1-2 nM ABL1 or T315I ABL1, 500 nM peptide, 35 μM ATP for ABL1 and 10 μM ATP for T315I ABL1, 2.0% DMSO in assay buffer containing 50 mM Tris, pH 7.8, 100 mM NaCl, 10 mM MgCl2, 5 mM DTT, 0.6 mg/mL BSA. Reactions proceed at room temperature for one and half hour and were stopped by adding, 20 μL additional 50 mM NaCl, 0.4 mg/mL BSA, 45 mM EDTA, 200 nM SA-APC, 4 nM Eu—Py20 in assay buffer. The plates were incubated at room temperature for 40 min and HTRF was then measured on a plate reader.

[2] = target: T2, human JAK1 (a.a. 837-1142) (Homo sapiens, UniProt P23458); assay: In vitro JAK kinase assay (HTRF), JAK1; format: biochemical; conditions: JAK1, 90 μM ATP; read-out: EXAMPLE A JAK2-JAK1 HTRF-2 IC50
T2 construct: human JAK1 (a.a. 837-1142); His tag (N); made in house; host or cells: insect cells (baculovirus)
Outline: (§2)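 His-tagged catalytic domains from baculovirus-infected insect cells phosphorylated 500 nM biotinylated peptide in 50 mM Tris pH 7.8, 100 mM NaCl, 5 mM DTT, 0.01% BSA for 1 h at room temperature. ATP was 90 μM (JAK1), 30 μM (JAK2), 3 μM (JAK3). Detection used Eu-Py20/SA-APC; IC50s were derived.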

[3] = system: JAK2_INA61 (cancer cell line dependent on cytokines and JAK/STAT signal transduction); assay: Cellular assay: viability of cytokine-dependent cancer cell line (CellTiter-Glo); format: cell-based; conditions: 72 hours, read-out: EXAMPLE B JAK2_INA61 IC50
Procedure: One or more compounds herein were tested for inhibitory activity of JAK targets according to at least one of the following cellular assays.
Compounds were added to the cells in DMSO/media (final concentration 0.2% DMSO) and incubated for 72 hours at 37° C., 5% CO2. The effect of compound on cell viability was assessed using the CellTiter-Glo Luminescent Cell Viability Assay (Promega) followed by TopCount (Perkin Elmer, Boston, Mass.) quantitation. Potential off-target effects of compounds were measured in parallel using a non-JAK driven cell line with the same assay readout. […] All experiments were performed in duplicate.

[4] = target: T3, T315I ABL1 (Homo sapiens, UniProt P00519, T315I); assay: T315I ABL1 HTRF assay; format: biochemical; conditions: 10 μM ATP; read-out: EXAMPLE G T315I Abl IC50
T3 construct: The catalytic domains of ABL1 kinases (residues 27 to the C-termini) were N-terminal His tagged; His tag (N); purchased Upstate Cell Signaling Solutions; host or cells: insect cells (baculovirus)
Procedure: as §1

[5] = target: T4, human JAK3 (a.a. 781-1124) (Homo sapiens, UniProt P52333); assay: In vitro JAK kinase assay (HTRF), JAK3; format: biochemical; conditions: JAK3, 3 μM ATP; read-out: EXAMPLE A JAK2-JAK3 HTRF-2 IC50
T4 construct: JAK3 (a.a. 781-1124); His tag (N); made in house; host or cells: insect cells (baculovirus)
Outline: as §2

[6] = target: T5, human JAK2 (a.a. 828-1132) (Homo sapiens, UniProt O60674); assay: In vitro JAK kinase assay (HTRF), JAK2; format: biochemical; conditions: JAK2, 30 μM ATP; read-out: EXAMPLE A HTS-JAK2 HTRF-2 IC50
T5 construct: JAK2 (a.a. 828-1132); His tag (N); made in house; host or cells: insect cells (baculovirus)
Outline: as §2

[7] = target: TF1-BCRABL1 cells (Homo sapiens, UniProt P00519); assay: ABL1 cell based assay: viability of ABL1-dependent cell line (CellTiter-Glo)
Outline: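 ABL1-dependent cells plated at 3000 per well in RPMI 1640 with 10% FBS and exposed to compounds for 72 h at 37° C, 5% CO2, 0.2% DMSO final. Viability read by CellTiter-Glo luminescence; duplicate or more.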

[8] = 72 hours, cell viability, read-out: EXAMPLE F JAK2-TF1-BCRABL1 IC50
[9] = TF1_BCRABL cells, read-out: EXAMPLE H TF1_BCRABL IC50

T5 sequence (O60674 828-1132): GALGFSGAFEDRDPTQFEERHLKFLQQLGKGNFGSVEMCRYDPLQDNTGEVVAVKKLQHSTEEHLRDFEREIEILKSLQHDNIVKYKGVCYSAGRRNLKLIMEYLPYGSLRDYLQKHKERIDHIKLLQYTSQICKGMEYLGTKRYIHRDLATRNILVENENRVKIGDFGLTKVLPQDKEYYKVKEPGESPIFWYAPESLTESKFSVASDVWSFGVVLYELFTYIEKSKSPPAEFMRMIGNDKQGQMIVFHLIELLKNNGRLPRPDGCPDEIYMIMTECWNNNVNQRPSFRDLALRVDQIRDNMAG
T4 sequence (P52333 781-1124): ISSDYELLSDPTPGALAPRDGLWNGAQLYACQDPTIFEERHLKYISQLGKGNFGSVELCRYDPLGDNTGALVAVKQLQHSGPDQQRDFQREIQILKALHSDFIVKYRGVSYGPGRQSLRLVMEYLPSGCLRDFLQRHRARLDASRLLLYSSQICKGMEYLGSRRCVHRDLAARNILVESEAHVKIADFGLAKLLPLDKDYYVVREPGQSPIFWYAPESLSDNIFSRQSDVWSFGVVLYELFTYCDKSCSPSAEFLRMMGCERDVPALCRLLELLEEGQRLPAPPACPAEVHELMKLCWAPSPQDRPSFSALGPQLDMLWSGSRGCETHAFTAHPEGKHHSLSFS
T2 sequence (P23458 849-1154): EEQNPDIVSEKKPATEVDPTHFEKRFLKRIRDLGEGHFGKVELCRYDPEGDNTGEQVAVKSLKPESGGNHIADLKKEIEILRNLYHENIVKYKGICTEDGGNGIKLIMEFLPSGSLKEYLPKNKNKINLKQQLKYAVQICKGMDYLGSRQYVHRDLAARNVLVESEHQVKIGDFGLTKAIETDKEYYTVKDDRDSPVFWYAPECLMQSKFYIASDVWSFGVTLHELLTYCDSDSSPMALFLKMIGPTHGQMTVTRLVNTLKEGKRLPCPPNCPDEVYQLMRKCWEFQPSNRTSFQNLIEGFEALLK

For `Cc1ccc(C(=O)Nc2cccc(C(F)(F)F)c2)cc1-c1ccc2c(c1)[nH]c1ncncc12` [Example 52, 4-methyl-3-(9H-pyrimido-[4,5-b]indol-7-yl)-N-[3-(trifluoromethyl)phenyl]benzamide], the IC50 [1] was less than 200 nM, the IC50 [2] was no more than 500 nM and the IC50 [3] was 500 to 1000 nM. The IC50 [4] was less than 190 nM, the IC50 [5] was no more than 500 nM and the IC50 [6] was no more than 500 nM. For the same compound, the GI50 [7, 8] was no more than 500 nM and the GI50 [7, 9] was less than 180 nM.
`Cc1ccc(NC(=O)c2cc(N3CCN(C)CC3)cc(C(F)(F)F)c2)cc1-c1ccc2c(c1)[nH]c1ncncc12` [Example 26, 3-(4-Methylpiperazin-1-yl)-N-[4-methyl-3-(9H-pyrimido[4,5-b]indol-7-yl)phenyl]-5-(trifluoromethyl)benzamide bis(trifluoroacetate)] gave an IC50 [1] of less than 200 nM, an IC50 [2] of no more than 500 nM and an IC50 [4] of less than 190 nM. For the same compound, the IC50 [5] was no more than 500 nM, the IC50 [6] was no more than 500 nM and the GI50 [7, 8] was no more than 500 nM. It also gave a GI50 [7, 9] of less than 180 nM.
`Cc1ccc(C(=O)Nc2cncc(C(F)(F)F)c2)cc1-c1ccc2c(c1)[nH]c1ncncc12` [Example 66, 4-Methyl-3-(9H-pyrimido[4,5-b]indol-7-yl)-N-[5-(trifluoromethyl)pyridin-3-yl]-benzamide] showed an IC50 [1] of less than 200 nM, an IC50 [2] of no more than 500 nM and an IC50 [3] of 500 to 1000 nM. For the same compound, the IC50 [4] was less than 190 nM, the IC50 [5] was no more than 500 nM and the IC50 [6] was no more than 500 nM. It also gave a GI50 [7, 8] of no more than 500 nM and a GI50 [7, 9] of less than 180 nM.
`Cc1ccc(NC(=O)c2cccc(C(F)(F)F)c2)cc1-c1ccc2[nH]c3ncncc3c2c1` [Example 40, N-[4-Methyl-3-(9H-pyrimido[4,5-b]indol-6-yl)phenyl]-3-(trifluoromethyl)benzamide] was tested, and the IC50 [1] was less than 200 nM, the IC50 [2] was no more than 500 nM and the IC50 [3] was no more than 500 nM. For the same compound, the IC50 [4] was less than 190 nM, the IC50 [5] was 500 to 1000 nM and the IC50 [6] was no more than 500 nM. The GI50 [7, 8] was no more than 500 nM and the GI50 [7, 9] was less than 180 nM.
With `Cc1cnc(NC(=O)c2ccc(C)c(-c3ccc4c(c3)[nH]c3ncncc34)c2)s1` [Example 57, 4-methyl-N-(5-methyl-1,3-thiazol-2-yl)-3-(9H-pyrimido-[4,5-b]indol-7-yl)benzamide] the IC50 [2] was no more than 500 nM, the IC50 [3] was greater than 1000 nM and the IC50 [5] was greater than 1000 nM. The IC50 [6] was greater than 1000 nM and the GI50 [7, 8] was no more than 500 nM.
With `Cc1ccc(C(=O)Nc2nnc(C(F)(F)F)s2)cc1-c1ccc2c(c1)[nH]c1ncncc12` [Example 61, 4-methyl-3-(9H-pyrimido-[4,5-b]indol-7-yl)-N-[5-(trifluoromethyl)-1,3,4-thiadiazol-2-yl]benzamide] the IC50 [2] was greater than 1000 nM, the IC50 [3] was greater than 1000 nM and the IC50 [5] was no more than 500 nM. It also gave an IC50 [6] greater than 1000 nM and a GI50 [7, 8] of 500 to 1000 nM.
In the case of `O=C(Nc1cccc(C(F)(F)F)c1)c1cccc(-c2ccc3c(c2)[nH]c2ncncc23)c1` [Example 59, 3-(9H-pyrimido[4,5-b]indol-7-yl)-N-[3-(trifluoromethyl)-phenyl]benzamide], the IC50 [2] is reported as no more than 500 nM, the IC50 [3] is reported as greater than 1000 nM and the IC50 [5] is reported as greater than 1000 nM. It also gave an IC50 [6] of no more than 500 nM and a GI50 [7, 8] of 500 to 1000 nM.
`Cc1ccc(NC(=O)Nc2cccc(C(F)(F)F)c2)cc1-c1ccc2c(c1)[nH]c1ncncc12` [Example 47, N-[4-Methyl-3-(9H-pyrimido[4,5-b]indol-7-yl)phenyl]-N′-[3-(trifluoromethyl)-phenyl]urea] was tested, and the IC50 [2] was no more than 500 nM, the IC50 [3] was greater than 1000 nM and the IC50 [5] was no more than 500 nM. The IC50 [6] was 500 to 1000 nM and the GI50 [7, 8] was no more than 500 nM.
In the case of `Cc1ccc(C(=O)NCc2cc(F)ccc2F)cc1-c1ccc2c(c1)[nH]c1ncncc12` [Example 55, N-(2,5-difluorobenzyl)-4-methyl-3-(9H-pyrimido-[4,5-b]indol-7-yl)benzamide], the IC50 [2] is reported as greater than 1000 nM, the IC50 [3] is reported as 500 to 1000 nM and the IC50 [5] is reported as no more than 500 nM. It also gave an IC50 [6] greater than 1000 nM and a GI50 [7, 8] of 500 to 1000 nM.
`Cc1cccc(NC(=O)c2ccc(C)c(-c3ccc4c(c3)[nH]c3ncncc34)c2)c1` [Example 53, 4-methyl-N-(3-methyl-phenyl)-3-(9H-pyrimido-[4,5-b]indol-7-yl)benzamide] gave an IC50 [2] of no more than 500 nM, an IC50 [3] of 500 to 1000 nM and an IC50 [5] of no more than 500 nM. For the same compound, the IC50 [6] was no more than 500 nM and the GI50 [7, 8] was no more than 500 nM.
For `O=C(Nc1cccc(C(F)(F)F)c1)c1ccc(Cl)c(-c2ccc3c(c2)[nH]c2ncncc23)c1` [Example 58, 4-chloro-3-(9H-pyrimido-[4,5-b]indol-7-yl)-N-[3-(trifluoromethyl)phenyl]-benzamide], the IC50 [1] was less than 200 nM, the IC50 [2] was no more than 500 nM and the IC50 [3] was 500 to 1000 nM. It also gave an IC50 [4] of less than 190 nM, an IC50 [5] of no more than 500 nM and an IC50 [6] of no more than 500 nM. It also gave a GI50 [7, 8] of no more than 500 nM and a GI50 [7, 9] of less than 180 nM.
`N#Cc1ccc(C(=O)Nc2cccc(C(F)(F)F)c2)cc1-c1ccc2c(c1)[nH]c1ncncc12` [Example 51, 4-Cyano-3-(9H-pyrimido[4,5-b]indol-7-yl)-N-[3-(trifluoromethyl)phenyl]-benzamide] was tested, and the IC50 [2] was no more than 500 nM, the IC50 [3] was greater than 1000 nM and the IC50 [5] was greater than 1000 nM. The IC50 [6] was no more than 500 nM and the GI50 [7, 8] was no more than 500 nM.
With `Cc1ccc(NC(=O)c2cc(N3CCNCC3)cc(C(F)(F)F)c2)cc1-c1ccc2c(c1)[nH]c1ncncc12` [Example 28, N-[4-methyl-3-(9H-pyrimido-[4,5-b]indol-7-yl)phenyl]-3-piperazin-1-yl-5-(trifluoro-methyl)benzamide] the IC50 [2] was no more than 500 nM, the IC50 [3] was 500 to 1000 nM and the IC50 [5] was no more than 500 nM. It also gave an IC50 [6] of no more than 500 nM and a GI50 [7, 8] of no more than 500 nM.
`Cc1ccc(C(=O)Nc2cccc(OC(F)(F)F)c2)cc1-c1ccc2c(c1)[nH]c1ncncc12` [Example 54, 4-methyl-3-(9H-pyrimido-[4,5-b]indol-7-yl)-N-[3-(trifluoromethoxy)phenyl]-benzamide] showed an IC50 [2] of no more than 500 nM, an IC50 [3] of 500 to 1000 nM and an IC50 [5] of no more than 500 nM. It also gave an IC50 [6] of no more than 500 nM and a GI50 [7, 8] of no more than 500 nM.
For `Cc1ccc(NC(=O)c2cccc(F)c2)cc1-c1ccc2[nH]c3ncncc3c2c1` [Example 44, 3-fluoro-N-[4-methyl-3-(9H-pyrimido[4,5-b]indol-6-yl)-phenyl]benzamide], the IC50 [2] was no more than 500 nM, the IC50 [3] was greater than 1000 nM and the IC50 [5] was no more than 500 nM. It also gave an IC50 [6] greater than 1000 nM and a GI50 [7, 8] of 500 to 1000 nM.
`Cc1ccc(C(=O)N[C@@H](C)c2ccccc2)cc1-c1ccc2c(c1)[nH]c1ncncc12` [Example 64, 4-methyl-N-[(1S)-1-phenylethyl]-3-(9H-pyrimido[4,5-b]indol-7-yl)benzamide] was tested, and the IC50 [2] was greater than 1000 nM, the IC50 [3] was greater than 1000 nM and the IC50 [5] was no more than 500 nM. For the same compound, the IC50 [6] was greater than 1000 nM and the GI50 [7, 8] was 500 to 1000 nM.
